Measured values reported in ChEMBL document CHEMBL6087402, “Design, synthesis, and in vitro and in vivo biological evaluation of dihydroartemisinin derivatives as potent anti-cancer agents with ferroptosis-inducing and apoptosis-activating properties” (Eur J Med Chem, 2025).
Activity calls are given as the source filed them. No cut-off for these calls is given here.

How the values were obtained:
A549 = assay: Anti-proliferative activity against human A549 cells incubated for 72 hrs by MTT assay; assay type: functional, cell-based; details: A549, 72 h
HCT-116 [1] = assay: Anti-proliferative activity against human HCT-116 cells incubated for 72 hrs by MTT assay; assay type: functional, cell-based; details: HCT-116, 72 h
SW-620 = assay: Anti-proliferative activity against human SW620 cells incubated for 72 hrs by MTT assay; assay type: functional, cell-based; details: SW-620, 72 h
[2] = Selectivity index, ratio of IC50 for human L02 cells to IC50 for human A549 cells; assay type: toxicity; details: L02 cells versus A549 cells, read-out: Ratio IC50
[3] = Selectivity index, ratio of IC50 for human L02 cells to IC50 for human Bel-7402 cells; assay type: toxicity; details: L02 cells versus Bel-7402 cells, read-out: Ratio IC50
[4] = Selectivity index, ratio of IC50 for human L02 cells to IC50 for human SW620 cells; assay type: toxicity; details: L02 cells versus SW620 cells, read-out: Ratio IC50
[5] = Anti-proliferative activity against human L02 cells incubated for 72 hrs by MTT assay; assay type: toxicity, cell-based
HCT-116 [6] = assay: Inhibition of cell proliferation in human HCT-116 cells incubated for 12 hrs by EdU assay; assay type: functional, cell-based; details: dose <= 3.0 µM
HCT-116 [7] = assay: Inhibition of colony formation in human HCT-116 cells at 3 uM incubated for 7 to 12 days by crystal violet staining based analysis relative to control; assay type: functional; details: time 7-12 day
HCT-116 [8] = assay: Inhibition of cell proliferation in human HCT-116 cells at 3 uM incubated for 12 hrs by EdU assay (reference value: 48.14 %); assay type: functional
HCT-116 [9] = assay: Induction of ferroptosis in human HCT-116 cells incubated for 72 hrs in presence of DFO by MTT assay; assay type: functional, cell-based
HCT-116 [10] = assay: Depletion of GSH in human HCT-116 cells assessed as reduction in GSH/GSSG ratio upto 3 uM incubated for 24 hrs; assay type: functional, cell-based
HCT-116 [11] = assay: Induction of oxidative stress in human HCT-116 cells assessed as increase in MDA level incubated for 24 hrs; assay type: functional, cell-based; details: dose <= 3.0 µM
HCT-116 [12] = assay: Induction of ferroptosis in human HCT-116 cells assessed as reduction in GPX4 level upto 3 uM incubated for 72 hrs by Western blot analysis; assay type: functional, cell-based
HCT-116 [13] = assay: Induction of intracellular ROS level in human HCT-116 cells upto 3 uM incubated for 24 hrs by DCFH-DA dye based analysis; assay type: functional, cell-based
HCT-116 [14] = assay: Induction of apoptosis in human HCT-116 cells assessed as necrotic cells at 0.03 uM incubated for 72 hrs by Annexin V-FITC/PI staining based flow cytometry (reference value: 0.33 %); assay type: functional
HCT-116 [15] = assay: Induction of apoptosis in human HCT-116 cells assessed as viable cells at 0.3 uM incubated for 72 hrs by Annexin V-FITC/PI staining based flow cytometry (reference value: 97.1 %); assay type: functional; details: read-out: Activity
HCT-116 [16] = assay: Induction of apoptosis in human HCT-116 cells assessed as early apoptotic cells at 0.3 uM incubated for 72 hrs by Annexin V-FITC/PI staining based flow cytometry (reference value: 1.55 %); assay type: functional
HCT-116 [17] = assay: Induction of apoptosis in human HCT-116 cells assessed as late apoptotic cells at 0.3 uM incubated for 72 hrs by Annexin V-FITC/PI staining based flow cytometry (reference value: 0.98 %); assay type: functional
HCT-116 [18] = assay: Induction of apoptosis in human HCT-116 cells assessed as necrotic cells at 0.3 uM incubated for 72 hrs by Annexin V-FITC/PI staining based flow cytometry (reference value: 0.33 %); assay type: functional
HCT-116 [19] = assay: Induction of apoptosis in human HCT-116 cells assessed as late apoptotic cells at 3 uM incubated for 72 hrs by Annexin V-FITC/PI staining based flow cytometry (reference value: 0.98 %); assay type: functional
HCT-116 [20] = assay: Induction of apoptosis in human HCT-116 cells assessed as necrotic cells at 3 uM incubated for 72 hrs by Annexin V-FITC/PI staining based flow cytometry (reference value: 0.33 %); assay type: functional
HCT-116 [21] = assay: Induction of apoptosis in human HCT-116 cells in presence of Z-VAD-FMK; assay type: functional, cell-based
HCT-116 [22] = assay: Induction of mitochondrial membrane potential loss in human HCT-116 cells assessed as increase in green fluorescence incubated upto 3 uM by JC-1 dye based analysis; assay type: functional, cell-based
HCT-116 [23] = assay: Induction of apoptosis in human HCT-116 cells assessed as increase in cleaved caspase-3 level upto 3 uM incubated for 72 hrs by Western blot analysis; assay type: functional, cell-based
HCT-116 [24] = assay: Induction of apoptosis in human HCT-116 cells assessed as increase in JNK level upto 3 uM incubated for 72 hrs by Western blot analysis; assay type: functional, cell-based
HCT-116 [25] = assay: Induction of cell cycle arrest in human HCT-116 cells assessed as accumulation at G0/G1 phase at 0.03 uM incubated for 72 hrs by PI staining based flow cytometry (reference value: 80.71 %); assay type: functional
HCT-116 [26] = assay: Induction of cell cycle arrest in human HCT-116 cells assessed as accumulation at G0/G1 phase at 0.3 uM incubated for 72 hrs by PI staining based flow cytometry (reference value: 80.71 %); assay type: functional
HCT-116 [27] = assay: Induction of cell cycle arrest in human HCT-116 cells assessed as accumulation at S phase at 0.03 uM incubated for 72 hrs by PI staining based flow cytometry (reference value: 23.49 %); assay type: functional
HCT-116 [28] = assay: Induction of cell cycle arrest in human HCT-116 cells assessed as accumulation at G2/M phase at 3 uM incubated for 72 hrs by PI staining based flow cytometry (reference value: 15.79 %); assay type: functional
[29] = Toxicity in BALB/c mouse assessed as loss of appetite at 100 mg/kg, ip administered continuously for 7 days; assay type: organism-based; details: in vivo, 168 h, time 7 day
[30] = Toxicity in BALB/c mouse assessed as diarrhea at 100 mg/kg, ip administered continuously for 7 days; assay type: organism-based; details: in vivo, 168 h, time 7 day
[31] = Toxicity in BALB/c mouse assessed as difficulty in breathing at 100 mg/kg, ip administered continuously for 7 days; assay type: organism-based; details: in vivo, 168 h, time 7 day
[32] = Toxicity in BALB/c mouse assessed as change fur luster at 100 mg/kg, ip administered continuously for 7 days; assay type: organism-based; details: in vivo, 168 h, time 7 day
[33] = Toxicity in BALB/c mouse assessed as decrease in body weight at 100 mg/kg, ip administered continuously for 7 days; assay type: organism-based; details: in vivo, 168 h, time 7 day
[34] = Toxicity in BALB/c mouse assessed as apparent damage in heart at 100 mg/kg, ip administered continuously for 7 days by H and E staining based analysis; assay type: organism-based; details: in vivo, 168 h, time 7 day
[35] = Toxicity in BALB/c mouse assessed as toxic effect upto 100 mg/kg, ip administered continuously for 7 days; assay type: organism-based; details: in vivo, 168 h, time 7 day
[36] = Toxicity in BALB/c mouse assessed as lethal dose administered intraperitoneally continuously for 7 days; details: in vivo, route ip, time 7 day
HCT-116 [37] = assay: Antitumor activity against human HCT-116 cells xenografted in mouse assessed as reduction in tumor cell mitotic figures at 50 mg/kg, ip administered once in every 2 days for 21 days by H and E staining based analysis; assay type: functional, organism-based; details: time 21.0 day
HCT-116 [38] = assay: Antitumor activity against human HCT-116 cells xenografted in mouse assessed as reduction in nuclear-cytoplasmic ratio at 50 mg/kg, ip administered once in every 2 days for 21 days by H and E staining based analysis; assay type: functional, organism-based; details: time 21.0 day

Compound: C[C@@H]1CC[C@H]2[C@@H](C)C(OC(=O)Nc3ccc(Cl)cc3)O[C@@H]3O[C@@]4(C)CC[C@H]1[C@]32OO4 (stereo not given in full)
- IC50 (A549): 1000 nM
- IC50 (HCT-116 [1]): 310 nM
- IC50 (SW-620): 600 nM
- selectivity ratio [2]: 16.8
- selectivity ratio [3]: 2
- selectivity ratio [4]: 28
- IC50 at 72 h [5]: 16800 nM
- inhibition (HCT-116 [6]): Dose-dependent-effect
- inhibition at 3 µM (HCT-116 [7]): 62.1%
- inhibition at 3 µM (HCT-116 [8]): 11.3%
- Activity (HCT-116 [9]): inactive
- Activity (HCT-116 [10]): Active
- Activity (HCT-116 [11]): Dose-dependent-effect
- Activity (HCT-116 [12]): Active
- Activity (HCT-116 [13]): Active
- Activity (HCT-116 [14]): 0.22%
- viability at 0.3 µM (HCT-116 [15]): 81.9%
- Activity (HCT-116 [16]): 9.8%
- Activity (HCT-116 [17]): 8.21%
- Activity (HCT-116 [18]): 0.071%
- Activity (HCT-116 [19]): 26.2%
- Activity (HCT-116 [20]): 0.026%
- Activity (HCT-116 [21]): inactive
- Activity (HCT-116 [22]): Active
- Activity (HCT-116 [23]): Active
- Activity (HCT-116 [24]): Active
- Activity (HCT-116 [25]): 49.21%
- Activity (HCT-116 [26]): 37.62%
- Activity (HCT-116 [27]): 25.54%
- Activity (HCT-116 [28]): 33.23%
- Activity [29]: Non-toxic
- Activity [30]: Non-toxic
- Activity [31]: Non-toxic
- Activity [32]: Non-toxic
- Activity [33]: Non-toxic
- Activity [34]: Non-toxic
- Activity [35]: Non-toxic
- LD50 at 168 h [36]: > 100 mg/kg
- Activity (HCT-116 [37]): Active
- Activity (HCT-116 [38]): Active
